Source: patent US7976877B2, “Use of knotwood extracts” (Oy Arbonova Ab, priority 2003, dated 2011)

What was measured:
Assay type in all cases: biochemical
[1] = Scavenging of superoxide radicals in vitro (xanthine-xanthine oxidase system, lucigenin chemiluminescence)
Method: (§1) Estimation of free radical trapping capacity. The capacity of the extracts, fractions thereof and the pure compounds to trap superoxide (oxygen radical) and peroxyl radicals was estimated by chemiluminescence-based methodology (17). Superoxide anions were produced by xanthine-xanthine oxidase system as follows. 20 μL of xanthine oxidase (420 mU/mL), 0.02 mL of 5 mM lucigenin, 0.02 mL of 200 mM linoleic acid dissolved in 50 mM KOH, 0.78 mL of 50 mM potassium phosphate buffer, pH 10.0, and test samples were pipetted in cuvettes. The reaction was initiated by the automated dispensing of 0.11 mL of 1.45 mM xanthine (final volume 1.0 mL). Chemiluminescence in duplicate samples at 35° C. was measured for 6 min in 1-min cycles. Peroxyl radicals were generated by thermal decomposition of 2,2′-azobis(2-amidinopropane)-hydrochloride as follows. 0.45 mL of 0.1 M sodium phosphate buffer, pH 7.4, containing 0.9% NaCl, 0.02 mL of 120 mM linoleic acid, 0.05 mL of luminol (0.5 mg/mL) and test compounds were mixed in the cuvette. The assay was initiated by 0.05 mL of ABAP (83 mg/mL). Chemiluminescence in triplicate cuvettes at 37° C. was measured until a peak value for each sample was detected. The half-peak time point defined the peroxyl radical trapping capacity.

[2] = Scavenging of peroxyl radicals in vitro (thermal decomposition of ABAP, luminol chemiluminescence); conditions: for Stoichiometric factor (peroxyl radicals), range over the two test series: Series 1 and 2 together
Method: as §1

[3] = test system: t-butylhydroperoxide (t-BuOOH) induced lipid peroxidation in rat liver microsomes; test: Inhibition of t-BuOOH induced lipid peroxidation in rat liver microsomes in vitro (luminol-enhanced chemiluminescence)
Description: Estimation of inhibition of lipid peroxidation. The antioxidant properties of the extracts, fractions thereof and the pure compounds were estimated by their potency to inhibit t-butylhydroperoxide (t-BuOOH) induced lipid peroxidation in rat liver microsomes in vitro (17) and by their capacity to trap superoxide (oxygen radical) and peroxyl radicals, estimated by chemiluminescence-based methodology (17). The lipid peroxidation was detected by luminol-enhanced chemiluminescence. Test compounds or extracts were added to incubation mixtures in a small volume (2% of incubation volume), and the lipid peroxidation potency was compared to that of the vehicle (ethanol). Assays for the t-BuOOH-initiated lipid peroxidation was performed as follows. The buffer (50 mM sodium carbonate, pH 10.2, with 0.1 mM EDTA) was pipetted in a volume of 0.8 mL in the luminometer cuvette. 20 μL of diluted rat liver microsomes (final concentration 1.5 μg protein/mL) was added, followed by 6 μL of luminol (0.5 mg/mL) and test chemicals. The reaction was initiated by 0.05 mL of 0.9 mM t-BuOOH at 33° C. The chemiluminescence was measured for 45 min at 1 min cycles. The tests were repeated two to four times on separate days. Variation between assays were <10%.

[4] = Series 1, pure compounds, rat liver microsomes
[5] = Series 2, pure compounds, different batch of rat liver microsomes
[6] = knotwood extracts, fractions and reference compounds
[7] = knotwood extracts, fractions and reference compounds, rat liver microsomes

SMILES	IC50 ([1]; Series 1, pure compounds)	Scavenging of superoxide radicals in vitro, IC50 ([1]; Series 1, pure compounds)	IC50 [3, 4]	Inhibition of lipid peroxidation in vitro, IC50 [3, 4]	IC50 [3, 5]	Inhibition of lipid peroxidation in vitro, IC50 [3, 5]	Scavenging of superoxide radicals in vitro, IC50 ([1]; Series 1, pure compounds, listed as nortrachelogenin)	Stoichiometric factor (peroxyl radicals scavenged per mole of compound) ([2]; Series 1, pure compounds)	Trapping capacity (peroxyl radicals scavenged per gram) ([2]; Series 1, pure compounds)	Stoichiometric factor (peroxyl radicals scavenged per mole of compound) ([2]; Series 2, pure compounds)	Trapping capacity (peroxyl radicals scavenged per gram) ([2]; Series 2, pure compounds)	Scavenging of superoxide radicals in vitro, IC50 [1, 6]	Inhibition of lipid peroxidation in vitro, IC50 [3, 7]	Stoichiometric factor (peroxyl radicals), range over the two test series [2]	Trapping capacity (peroxyl radicals scavenged per gram) ([2]; knotwood extracts, fractions and reference compound)	Scavenging of superoxide radicals in vitro, IC50 ([1]; Series 1, pure compounds, listed as secoisolariciresinol)
COc1cc(C[C@H]2CO[C@H](c3ccc(O)c(OC)c3)[C@H]2CO)ccc1O [Lariciresinol]	35 nM	0.013 µg/mL	350 nM	0.126 µg/mL	170 nM	0.063 µg/mL		1.0 mole/mole	2.7 mmol/g	2.6 mole/mole	7.3 mmol/g					
COc1cc(C[C@H]2COC(=O)[C@@H]2Cc2ccc(O)c(OC)c2)ccc1O [Matairesinol]	40 nM	0.014 µg/mL	280 nM	0.099 µg/mL				1.0 mole/mole	2.9 mmol/g							
COc1ccc(O)c(C(C)(C)C)c1 [BHA, butylated hydroxyanisole, reference compound]	15 nM		1100 nM									0.0027 µg/mL	0.198 µg/mL			
COc1cc(C[C@H]2C(=O)OC[C@@H]2[C@H](O)c2ccc(O)c(OC)c2)ccc1O [Hydroxymatairesinol]	217 nM	0.081 µg/mL	150 nM	0.058 µg/mL	180 nM	0.067 µg/mL		2.1 mole/mole	5.6 mmol/g	2.7 mole/mole	7.3 mmol/g					

More lines, main results first:

IC50 ([1]; Series 1, pure compounds)	Scavenging of superoxide radicals in vitro, IC50 ([1]; Series 1, pure compounds)	IC50 [3, 4]	Inhibition of lipid peroxidation in vitro, IC50 [3, 4]	IC50 [3, 5]	Inhibition of lipid peroxidation in vitro, IC50 [3, 5]	SMILES	Scavenging of superoxide radicals in vitro, IC50 ([1]; Series 1, pure compounds, listed as nortrachelogenin)	Stoichiometric factor (peroxyl radicals scavenged per mole of compound) ([2]; Series 1, pure compounds)	Trapping capacity (peroxyl radicals scavenged per gram) ([2]; Series 1, pure compounds)	Stoichiometric factor (peroxyl radicals scavenged per mole of compound) ([2]; Series 2, pure compounds)	Trapping capacity (peroxyl radicals scavenged per gram) ([2]; Series 2, pure compounds)	Scavenging of superoxide radicals in vitro, IC50 [1, 6]	Inhibition of lipid peroxidation in vitro, IC50 [3, 7]	Stoichiometric factor (peroxyl radicals), range over the two test series [2]	Trapping capacity (peroxyl radicals scavenged per gram) ([2]; knotwood extracts, fractions and reference compound)	Scavenging of superoxide radicals in vitro, IC50 ([1]; Series 1, pure compounds, listed as secoisolariciresinol)
1.4 nM	0.00053 µg/mL	140 nM	0.053 µg/mL	190 nM	0.07 µg/mL	COc1cc(CC2COC(=O)C2(O)Cc2ccc(O)c(OC)c2)ccc1O (centres unmarked) [Nortrachelogenin]	more effective scavengers than both BHA and Trolox	2.2 mole/mole	5.9 mmol/g	2.0 mole/mole	5.3 mmol/g					
25 nM		20 nM		180 nM	0.046 µg/mL	Cc1c(C)c2c(c(C)c1O)CCC(C)(C(=O)O)O2 (centres unmarked) [Trolox, 6-hydroxy-2,5,7,8-tetramethylchroman-2-carboxylic acid, reference compound]		2.0 mole/mole	8.0 mmol/g	1.7 mole/mole	6.8 mmol/g	0.0063 µg/mL	0.005 µg/mL	1.7-2.0 mole/mole	8.0 mmol/g	
4.8 nM	0.0018 µg/mL	100 nM	0.037 µg/mL	150 nM	0.054 µg/mL	COc1cc(C[C@@H](CO)[C@H](CO)Cc2ccc(O)c(OC)c2)ccc1O [Secoisolariciresinol]		3.1 mole/mole	8.5 mmol/g	4.0 mole/mole	11 mmol/g			3.1-4.0 mole/mole		more effective scavengers than both BHA and Trolox
